Measured values from ChEMBL document CHEMBL4196018, “New antitumor anthra[2,3-b]furan-3-carboxamides: Synthesis and structure-activity relationship” (Eur J Med Chem, 2018).
The source made the active and inactive calls. The calls are words filed in the database; no cut-off is given here.

Columns and labels:
[1] = Resistance index, ratio of IC50 for human K562/4 cells to IC50 for human K562 cells; assay type: functional
HeLa = assay: Antiproliferative activity against human HeLa cells after 72 hrs by MTT assay; assay type: functional, cell-based
HCT-116 [2] = assay: Antiproliferative activity against p53 knockout human HCT116 cells after 72 hrs by MTT assay; assay type: functional, cell-based; details: HCT-116, 72 h
K562 [3] = assay: Antiproliferative activity against human K562 cells after 72 hrs by MTT assay; assay type: functional, cell-based; details: K562, 72 h
[4] = Antiproliferative activity against human K562/4 cells after 72 hrs by MTT assay; assay type: functional, cell-based; details: K562/4, 72 h
L1210 = assay: Antiproliferative activity against mouse L1210 cells after 48 hrs by MTT assay; assay type: functional, cell-based; details: L1210, 48 h
[5] = Resistance index, ratio of IC50 for p53 knockout human HCT116 cells to IC50 for human HCT116 cells; assay type: functional
CCRF-CEM = assay: Antiproliferative activity against human CEM cells after 72 hrs by MTT assay; assay type: functional, cell-based
HCT-116 [6] = assay: Antiproliferative activity against human HCT116 cells after 72 hrs by MTT assay; assay type: functional, cell-based; details: HCT-116, 72 h
[7] = Substrate activity at P-gp in human K562/4 cells assessed as test compound accumulation at 2 uM after 1 to 24 hrs by flow cytometry; assay type: ADME, cell-based
[8] = Substrate activity at P-gp in human K562/4 cells assessed as test compound accumulation at 2 uM after 1 to 24 hrs in presence of P-gp inhibitor tariquidar by flow cytometry; assay type: ADME, cell-based
[9] = Drug uptake in human K562 cells at 2 uM after 1 to 24 hrs by flow cytometry; assay type: ADME, cell-based; details: k562, 2 µM
[10] = biological target: T1, DNA topoisomerase 1 (Homo sapiens) (UniProt P11387); assay: Inhibition of human topoisomerase-1 at 1 to 30 uM using supercoiled pBR322 DNA as substrate after 30 mins by agarose gel electrophoresis method
T1 sequence (whole entry): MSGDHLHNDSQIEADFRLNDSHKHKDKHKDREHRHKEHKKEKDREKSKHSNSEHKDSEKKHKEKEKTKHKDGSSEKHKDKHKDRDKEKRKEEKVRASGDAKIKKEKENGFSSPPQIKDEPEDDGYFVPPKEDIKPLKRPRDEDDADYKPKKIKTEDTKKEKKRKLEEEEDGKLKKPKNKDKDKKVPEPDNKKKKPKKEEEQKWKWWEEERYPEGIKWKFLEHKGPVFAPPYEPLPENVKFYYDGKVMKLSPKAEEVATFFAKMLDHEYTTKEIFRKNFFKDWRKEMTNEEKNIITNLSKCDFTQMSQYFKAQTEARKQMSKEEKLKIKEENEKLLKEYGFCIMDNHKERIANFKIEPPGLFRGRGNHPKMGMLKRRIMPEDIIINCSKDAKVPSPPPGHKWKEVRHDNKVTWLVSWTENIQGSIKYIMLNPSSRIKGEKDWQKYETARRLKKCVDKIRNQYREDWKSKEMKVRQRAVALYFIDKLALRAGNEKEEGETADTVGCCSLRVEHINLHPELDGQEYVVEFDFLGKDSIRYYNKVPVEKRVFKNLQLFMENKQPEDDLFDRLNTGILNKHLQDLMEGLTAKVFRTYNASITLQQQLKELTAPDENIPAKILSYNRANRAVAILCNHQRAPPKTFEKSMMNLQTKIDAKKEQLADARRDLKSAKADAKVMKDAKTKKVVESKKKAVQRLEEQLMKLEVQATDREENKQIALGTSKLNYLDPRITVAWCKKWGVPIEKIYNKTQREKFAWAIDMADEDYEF

K562 [11] = assay: Cell cycle arrest in human K562 cells at 1 uM up to 48 hrs by propidium iodide staining based flow cytometry; assay type: functional
Homo sapiens = species on record: Homo sapiens; assay: Cell cycle arrest in human K562/4 cells at 1 uM up to 48 hrs by propidium iodide staining based flow cytometry; assay type: functional
MKN-45 [12] = assay: Induction of ROS generation in human MKN45 cells at 0.1 to 1 uM after 30 mins by H2DCFDA staining based flow cytometry; assay type: functional, cell-based
TMK-1 [13] = assay: Induction of apoptosis in human TMK1 cells at 1 uM after 24 hrs by Annexin V-FITC staining based flow cytometry relative to control; assay type: functional
MKN-45 [14] = assay: Induction of apoptosis in human MKN45 cells at 1 uM after 24 hrs by Annexin V-FITC staining based flow cytometry relative to control; assay type: functional
TMK-1 [15] = assay: Induction of apoptosis in human TMK1 cells after 24 hrs by Annexin V-FITC staining based flow cytometry; assay type: functional, cell-based
[16] = biological target: T1, DNA topoisomerase 1 (Homo sapiens); assay: Inhibition of human topoisomerase-1 using supercoiled pBR322 DNA as substrate after 30 mins by agarose gel electrophoresis method
MKN-45 [17] = assay: Induction of apoptosis in human MKN45 cells after 24 hrs by Annexin V-FITC staining based flow cytometry; assay type: functional, cell-based
Lymphocyte = assay: Cytotoxicity against human lymphocytes assessed as reduction in cell viability at 25 uM after 72 hrs by MTT assay; assay type: cell-based
TMK-1 [18] = assay: Induction of ROS generation in human TMK1 cells at 0.1 to 1 uM after 30 mins by H2DCFDA staining based flow cytometry; assay type: functional, cell-based
[19] = Substrate activity at P-gp in human K562/4 cells assessed as test compound accumulation at 1 uM after 1 to 24 hrs by flow cytometry; assay type: ADME, cell-based

| IC50 (HeLa) [µM] | IC50 (HCT-116 [2]) [µM] | IC50 (K562 [3]) [µM] | IC50 (L1210) [µM] | IC50 (CCRF-CEM) [µM] | IC50 (HCT-116 [6]) [µM] | Compound | Ratio IC50 [1] | IC50 [4] [µM] | Ratio IC50 [5] | also measured |
| --- | --- | --- | --- | --- | --- | --- | --- | --- | --- | --- |
| 3.7 | 5.4 | 9.2 | 3.1 | 4 | 7.6 | Cc1oc2c(N)c3c(c(N)c2c1C(=O)N1CC[C@H](N)C1)C(=O)c1ccccc1C3=O | 0.9 | 8.3 | 0.7 | – |
| 2.2 | 0.8 | 1.1 | 2 | 3.2 | 0.8 | CN1CCN(NC(=O)c2coc3c(O)c4c(c(O)c23)C(=O)c2ccccc2C4=O)CC1 | 1.4 | 1.5 | 1 | – |
| 4.2 | 10 | 2.3 | 2.4 | 4 | 6 | NC1CCN(C(=O)c2coc3c(O)c4c(c(O)c23)C(=O)c2ccccc2C4=O)CC1 | 4.2 | 9.6 | 1.7 | – |
| – | – | – | – | – | – | COc1cccc2c1C(=O)c1c(O)c3c(c(O)c1C2=O)C[C@@](O)(C(=O)CO)C[C@@H]3O[C@H]1C[C@H](N)[C@H](O)[C@H](C)O1 [DOXORUBICIN] | – | 9.8 | – | Activity [7]: Active; Activity [8]: Not Active; Drug uptake [9]: Active |
| 2.3 | 2.4 | 1.3 | 4.4 | 3.9 | 3.2 | Cc1oc2c(O)c3c(c(O)c2c1CN1CC[C@H](N)C1)C(=O)c1ccccc1C3=O | 1.4 | 1.8 | 0.8 | – |
| 5 | 4 | 3.8 | 1.5 | 3.5 | 4.5 | Cc1oc2c(Cl)c3c(c(Cl)c2c1C(=O)N1CC[C@H](N)C1)C(=O)c1ccccc1C3=O | 1.4 | 5.3 | 0.9 | – |
| 4.4 | 4.6 | 3.6 | 1.7 | 4 | 5.3 | N[C@H]1CCN(C(=O)c2c(C(F)(F)F)oc3c(O)c4c(c(O)c23)C(=O)c2ccccc2C4=O)C1 | 0.6 | 2.2 | 0.9 | inhibition [10]: inactive; Activity [7]: Not Active; Activity (K562 [11]): Active; Drug uptake [9]: Active; Activity (Homo sapiens): Active |
| 27.9 | 50 | 28.6 | 20 | 23.2 | 41 | COc1c2c(c(OC)c3c(C(=O)N4CC[C@H](N)C4)c(C)oc13)C(=O)c1ccccc1C2=O | 1.4 | 38.7 | 1.2 | – |
| 2 | 1 | 0.9 | 1 | 1 | 0.8 | O=C1c2ccccc2C(=O)c2c1c(O)c1occ(C(=O)NC3CCNC3)c1c2O (racemic) | 5 | 4.5 | 1.3 | – |
| 1 | 3.4 | 1.1 | 0.7 | 1.3 | 2.8 | N[C@H]1CCN(C(=O)c2coc3c(O)c4c(c(O)c23)C(=O)c2ccccc2C4=O)C1 | 1.3 | 1.5 | 1.2 | Activity (MKN-45 [12]): Active; Activity (TMK-1 [13]): 60 - 90%; Activity (MKN-45 [14]): 60 - 90%; Activity [7]: Not Active; Activity (TMK-1 [15]): Dose-dependent effect; inhibition [16]: Dose-dependent effect; Drug uptake [9]: Active; Activity (MKN-45 [17]): Dose-dependent effect; Activity (Lymphocyte): Non-Toxic; Activity (TMK-1 [18]): Active |
| 5 | 5.8 | 2.9 | 3.5 | 4.6 | 5.9 | CN[C@H]1CCN(C(=O)c2coc3c(O)c4c(c(O)c23)C(=O)c2ccccc2C4=O)C1 | 1.9 | 5.3 | 1 | – |
| 2.3 | 2.5 | 1.3 | 2 | 4 | 3 | NC1CCCN(C(=O)c2coc3c(O)c4c(c(O)c23)C(=O)c2ccccc2C4=O)C1 (racemic) | 2 | 2.6 | 0.8 | – |
| 2.8 | 2.2 | 1.2 | 4.3 | 4.3 | 2.2 | Cc1oc2c(O)c3c(c(O)c2c1CN1CC[C@@H](N)C1)C(=O)c1ccccc1C3=O | 1.6 | 1.9 | 1 | – |
| 0.7 | 1.3 | 0.9 | 0.6 | 0.5 | 1.2 | Cc1oc2c(O)c3c(c(O)c2c1C(=O)N1CC[C@H](N)C1)C(=O)c1ccccc1C3=O | 1.5 | 1.4 | 1.1 | Activity (MKN-45 [12]): Active; Activity (TMK-1 [13]): 60 - 90%; Activity (MKN-45 [14]): 60 - 90%; inhibition [10]: Active; Activity (TMK-1 [15]): Dose-dependent effect; Activity (MKN-45 [17]): Dose-dependent effect; Activity (TMK-1 [18]): Active |
| 1.1 | 4 | 1.1 | 0.9 | 0.8 | 4.2 | O=C1c2ccccc2C(=O)c2c1c(O)c1occ(C(=O)NC3CCNCC3)c1c2O | 2.3 | 2.5 | 1 | – |
| 3.3 | 5.1 | 2.3 | 2.5 | 4 | 5 | N[C@@H]1CCN(C(=O)c2coc3c(O)c4c(c(O)c23)C(=O)c2ccccc2C4=O)C1 | 1.6 | 3.7 | 1 | inhibition [16]: Dose-dependent effect |
| – | – | – | – | – | – | COc1cc2c(cc1OC)CN(CCc1ccc(NC(=O)c3cc(OC)c(OC)cc3NC(=O)c3cnc4ccccc4c3)cc1)CC2 | – | – | – | Activity [19]: Not Active |
